pEC50, pIC50: −log10 of the molar value.
Assays:
GHSR1a [1] = molecular target: T1, GHSR1a (Homo sapiens, UniProt Q92847); test: Calcium FLIPR assay, GHSR-1a agonism; format: cell-based; set-up: Emax: unit not given here; conditions: HEK293/GHSR1a cells
T1 construct: expressed in transfected cells; host or cells: HEK293
How it was run: (§1)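 HEK293 cells expressing GHSR1a, seeded 24 hr earlier and loaded with calcium dye for 30-60 min at room temperature or 37° C, were read by FLIPR fluorescence. Agonism: compound added at t=20 sec, calcium followed 2 minutes. Antagonism: compound plus ghrelin (10 nM) at t=20 sec; potency from reduction of ghrelin response.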

GHSR1a [2] = molecular target: T1, GHSR1a; test: Calcium FLIPR assay, GHSR-1a antagonism (reduction of ghrelin response); format: cell-based; conditions: HEK293/GHSR1a cells, ghrelin 10 nM
How it was run: as §1

T1 sequence (Q92847 whole entry): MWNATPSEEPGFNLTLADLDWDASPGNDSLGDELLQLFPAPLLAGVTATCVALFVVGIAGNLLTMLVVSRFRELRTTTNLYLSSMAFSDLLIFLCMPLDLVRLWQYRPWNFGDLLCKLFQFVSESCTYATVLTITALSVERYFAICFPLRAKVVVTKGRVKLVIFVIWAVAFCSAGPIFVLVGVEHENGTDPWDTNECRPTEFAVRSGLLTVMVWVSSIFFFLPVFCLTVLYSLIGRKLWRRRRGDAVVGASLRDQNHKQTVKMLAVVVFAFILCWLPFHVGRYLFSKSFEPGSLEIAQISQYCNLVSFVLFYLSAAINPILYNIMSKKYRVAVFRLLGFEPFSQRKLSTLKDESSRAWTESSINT

pEC50 (GHSR1a [1])	pIC50 (GHSR1a [2])	Emax (GHSR1a [1])	Compound
< 4.52	5.92	–	CC(NC(=O)N(C)C1CCN(C)CC1)c1ccc(-c2cnc(N3CCN(C)CC3)cn2)c(Cl)c1Cl (stereo not drawn) [Compound H0822, 3-(1-(2,3-dichloro-4-(5-(4-methylpiperazin-1-yl)pyrazin-2-yl)phenyl)ethyl)-1-methyl-1-(1-methylpiperidin-4-yl)urea]
< 4.52	7.46	–	CCCN(C(=O)NC(C)c1ccc(-c2cnccn2)c(Cl)c1Cl)C1CCN(C)CC1 (stereo not drawn) [Compound H0827, 3-(1-(2,3-dichloro-4-(pyrazin-2-yl)phenyl)ethyl)-1-(1-methylpiperidin-4-yl)-1-propylurea]
< 4.52	6.42	–	CC(NC(=O)N(C)C1CCN(C)CC1)c1ccc(-c2cnc3ccccc3n2)c(Cl)c1Cl (stereo not drawn) [Compound H0828, 3-(1-(2,3-dichloro-4-(quinoxalin-2-yl)phenyl)ethyl)-1-methyl-1-(1-methylpiperidin-4-yl)urea]
< 4.52	5.92	–	Cc1nccnc1-c1ccc(C(C)NC(=O)N(C)C2CCN(C)CC2)c(Cl)c1Cl (stereo not drawn) [Compound H0831, 3-(1-(2,3-dichloro-4-(3-methylpyrazin-2-yl)phenyl)ethyl)-1-methyl-1-(1-methylpiperidin-4-yl)urea]
< 4.52	7.96	–	CC#Cc1ccc(C(C)NC(=O)N(C)C2CCN(C)CC2)c(Cl)c1Cl (stereo not drawn) [Compound H0832, 3-(1-(2,3-dichloro-4-(prop-1-yn-1-yl)phenyl)ethyl)-1-methyl-1-(1-methylpiperidin-4-yl)urea]
7.17	7.19	1411	CC(NC(=O)N(C)C1CCN(C)CC1)c1ccc(-c2cnn(C3CC3)c2)c(Cl)c1Cl (stereo not drawn) [Compound H0842, 3-(1-(2,3-dichloro-4-(1-cyclopropyl-1H-pyrazol-4-yl)phenyl)ethyl)-1-methyl-1-(1-methylpiperidin-4-yl)urea]
7.29	7.46	1910	Cc1nccnc1-c1ccc(C(C)NC(=O)N(C)[C@@H]2CCN(C)CC2(C)C)c(Cl)c1Cl (stereo partly drawn) [Compound H0843, 3-(1-(2,3-dichloro-4-(3-methylpyrazin-2-yl)phenyl)ethyl)-1-methyl-1-((R)-1,3,3-trimethylpiperidin-4-yl)urea]
< 4.52	6.15	–	Cc1nccnc1-c1ccc(C(CC2CC2)NC(=O)N(C)C2CCN(C)CC2)c(Cl)c1Cl (stereo not drawn) [Compound H0844, 3-(2-cyclopropyl-1-(2,3-dichloro-4-(3-methylpyrazin-2-yl)phenyl)ethyl)-1-methyl-1-(1-methylpiperidin-4-yl)urea]
6.89	6.77	3815	CC(NC(=O)N(C)C1CCN(C)CC1)c1ccc(NC2CC2)c(Cl)c1Cl (stereo not drawn) [Compound H0846, 3-(1-(2,3-dichloro-4-(cyclopropylamino)phenyl)ethyl)-1-methyl-1-(1-methylpiperidin-4-yl)urea]
7.29	7.43	1383	CC(NC(=O)N(C)C1CCN(C)CC1)c1ccc(-c2ccc(C3CC3)cn2)c(Cl)c1Cl (stereo not drawn) [Compound H0849, 3-(1-(2,3-dichloro-4-(5-cyclopropylpyridin-2-yl)phenyl)ethyl)-1-methyl-1-(1-methylpiperidin-4-yl)urea]
< 4.52	5.92	–	CC(NC(=O)N(C)C1CCN(C)CC1)c1ccc(-c2cnccn2)c2ccccc12 (stereo not drawn) [Compound H0850, 1-methyl-1-(1-methylpiperidin-4-yl)-3-(1-(4-(pyrazin-2-yl)naphthalen-1-yl)ethyl)urea]
8.22	7.96	3320	CC(NC(=O)N(C)C1CCN(C)CC1)c1ccc(-c2nc(C3CC3)no2)c(Cl)c1Cl (stereo not drawn) [Compound H0851, 3-(1-(2,3-dichloro-4-(3-cyclopropyl-1,2,4-oxadiazol-5-yl)phenyl)ethyl)-1-methyl-1-(1-methylpiperidin-4-yl)urea]
7.74	7.66	1683	CC(C)C#Cc1ccc(C(C)NC(=O)N(C)C2CCN(C)CC2)c(Cl)c1Cl (stereo not drawn) [Compound H0852, 3-(1-(2,3-dichloro-4-(3-methylbut-1-yn-1-yl)phenyl)ethyl)-1-methyl-1-(1-methylpiperidin-4-yl)urea]
< 4.52	5.82	–	CC(NC(=O)C(C)N1CCN(C)CC1)c1ccc(-c2cnccn2)c(Cl)c1Cl (stereo not drawn) [Compound H0853, N-(1-(2,3-dichloro-4-(pyrazin-2-yl)phenyl)ethyl)-2-(4-methylpiperazin-1-yl)propanamide]
7.62	7.19	3246	CC(NC(=O)N(C)C1CCN(C)CC1)c1ccc(-c2cnc(C3CC3)nc2)c(Cl)c1Cl (stereo not drawn) [Compound H0854, 3-(1-(2,3-dichloro-4-(2-cyclopropylpyrimidin-5-yl)phenyl)ethyl)-1-methyl-1-(1-methylpiperidin-4-yl)urea]
< 4.52	6.59	–	CC(NC(=O)N(C)C1CCN(C)CC1)c1ccc(C#CC2CC2)c(Cl)c1F (stereo not drawn) [Compound H0855, 3-(1-(3-chloro-4-(cycloprropylethynyl)-2-fluorophenyl)ethyl)-1-methyl-1-(1-methylpiperidin-4-yl)urea]
< 4.52	6.47	–	CC(NC(=O)N(C)C1CCN(C)CC1)c1ccc(-c2cnccn2)c(Cl)c1F (stereo not drawn) [Compound H0856, 3-(1-(3-chloro-2-fluoro-4-(pyrazin-2-yl)phenyl)ethyl)-1-methyl-1-(1-methylpiperidin-4-yl)urea]
< 4.52	6.14	–	CCC(NC(=O)N(C)C1CCN(C)C1)c1ccc(-c2cncc(F)n2)c(Cl)c1Cl (stereo not drawn) [Compound H0864, 3-(1-(2,3-dichloro-4-(6-fluoropyrazin-2-yl)phenyl)propyl)-1-methyl-1-(1-methylpyrrolidin-3-yl)urea]
< 4.52	8.05	–	CN1CCC(N(C)C(=O)NC(c2ccc(-c3cnccn3)c(Cl)c2Cl)C(F)(F)F)C1 (stereo not drawn) [Compound H0871, 3-(1-(2,3-dichloro-4-(pyrazin-2-yl)phenyl)-2,2,2-trifluoroethyl)-1-methyl-1-(1-methylpyrrolidin-3-yl)urea]
< 4.52	6.94	–	CN1CCC(N(C)C(=O)NC(CC2CC2)c2ccc(-c3cnccn3)c(Cl)c2Cl)C1 (stereo not drawn) [Compound H0874, 3-(2-cyclopropyl-1-(2,3-dichloro-4-(pyrazin-2-yl)phenyl)ethyl)-1-methyl-1-(1-methylpyrrolidin-3-yl)urea]
7.30	7.04	3751	CC(NC(=O)N(C)C1CCN(C)CC1)c1ccc(OC2CC2)c(Cl)c1Cl (stereo not drawn) [Compound H0875, 3-(1-(2,3-dichloro-4-cyclopropoxyphenyl)ethyl)-1-methyl-1-(1-methylpiperidin-4-yl)urea]
< 4.52	6.89	–	CC(NC(=O)N(C)C1CCN(C)CC1)c1cnc(Cl)c(Cl)c1Cl (stereo not drawn) [Compound H0876, 1-methyl-1-(1-methylpiperidin-4-yl)-3-(1-(4,5,6-trichloropyridin-3-yl)ethyl)urea]
< 4.52	6.09	–	CC(NC(=O)N(C)C1CCN(C)CC1)c1cnc(-c2cnccn2)c(Cl)c1Cl (stereo not drawn) [Compound H0881, 3-(1-(4,5-dichloro-6-(pyrazin-2-yl)pyridin-3-yl)ethyl)-1-methyl-1-(1-methylpiperidin-4-yl)urea]

— patent US9546157B2, “Asymmetric piperidinyl-substituted ureas as medicines” (Helsinn Healthcare SA, priority 2014, dated 2017)
